Experimental data published in ChEMBL document CHEMBL1152167, “Synthesis and cytotoxic activities of 1-benzylidine substituted beta-carboline derivatives” (Bioorg Med Chem Lett, 2008).
pIC50: −log10 of the molar value.

Columns and labels:
Assay type in all cases: functional, cell-based
[1] = system: HeLa; assay: Cytotoxicity against human HeLa cells by MTT assay
[2] = system: A-375; assay: Cytotoxicity against human A375 cells by MTT assay
[3] = system: Bel-7402; assay: Cytotoxicity against human Bel7402 cells by MTT assay
[4] = system: KB; assay: Cytotoxicity against human KB cells by MTT assay
[5] = system: BGC-823; assay: Cytotoxicity against human BGC823 cells by MTT assay
[6] = Cytotoxicity against human 786-O cells by MTT assay; conditions: 786-0
[7] = system: 769-P; assay: Cytotoxicity against human 769-P cells by MTT assay
[8] = system: A549; assay: Cytotoxicity against human A549 cells by MTT assay
[9] = system: HT-29; assay: Cytotoxicity against human HT-29 cells by MTT assay
[10] = system: HepG2; assay: Cytotoxicity against human HepG2 cells by MTT assay

SMILES | pIC50 [1] | pIC50 [2] | pIC50 [3] | pIC50 [4] | pIC50 [5] | pIC50 [6] | pIC50 [7] | pIC50 [8] | pIC50 [9] | pIC50 [10]
C(=C\c1nccc2c1[nH]c1ccccc12)/c1ccccc1 | 3.86 | 4.15 | 3.72 | < 3.70 | < 3.70 | 4.43 | 5.11 | 4.44 | 4.20 | 3.77
COc1cc(/C=C/c2nccc3c2[nH]c2ccccc23)cc(OC)c1OC | 4.30 | 4.62 | 4.46 | 4.61 | 4.18 | 4.84 | 5.24 | 4.89 | 4.56 | 4.49
O=[N+]([O-])c1ccc(/C=C/c2nccc3c4ccccc4n(CCCc4ccccc4)c23)cc1 | < 3.70 | < 3.70 | < 3.70 | < 3.70 | < 3.70 | < 3.70 | < 3.70 | < 3.70 | < 3.70 | < 3.70
COc1ccc(/C=C/c2nccc3c4ccccc4n(CCCc4ccccc4)c23)cc1 | < 3.70 | < 3.70 | < 3.70 | 4.23 | < 3.70 | 4.03 | 3.91 | 3.90 | < 3.70 | 3.73
CCCCOc1ccc2c3ccnc(/C=C/c4ccc(OC)cc4)c3n(CCCc3ccccc3)c2c1 | 4.03 | 4.19 | < 3.70 | 3.82 | < 3.70 | 4.05 | 4.20 | 4.10 | 4.27 | 4.03
Cc1nccc2c3ccccc3n(CCCc3ccccc3)c12 | < 3.00 | – | 3.35 | – | 3.01 | – | – | – | – | 3.35
COc1ccc(/C=C/c2nccc3c2[nH]c2ccccc23)cc1 | 3.85 | 4.37 | 3.93 | 4.53 | 3.78 | 4.89 | 4.59 | 4.33 | 4.67 | 4.22
CCCCOc1ccc2c3ccnc(/C=C/c4ccc([N+](=O)[O-])cc4)c3n(CCCc3ccccc3)c2c1 | < 3.70 | < 3.70 | < 3.70 | < 3.70 | < 3.70 | < 3.70 | < 3.70 | < 3.70 | < 3.70 | < 3.70
CCCCn1c2ccccc2c2cc[n+](Cc3ccccc3)c(/C=C/c3ccc(OC)cc3)c21 | 5.17 | 5.08 | 5.11 | 5.41 | 4.66 | 4.95 | 5.29 | 5.04 | 5.11 | 5.17
COc1ccc(/C=C/c2c3c(cc[n+]2Cc2ccccc2)c2ccccc2n3CCCc2ccccc2)cc1 | 5.35 | 6.17 | 5.54 | 6.03 | 6.34 | 5.49 | 5.34 | 5.41 | 5.37 | 5.68
CC(=O)n1c2ccccc2c2cc[n+](Cc3ccccc3)c(/C=C/c3ccc([N+](=O)[O-])cc3)c21 | 4.84 | 4.60 | 4.75 | 4.81 | 4.83 | 4.54 | 4.70 | 5.12 | 4.98 | 5.28
CCCCOc1ccc2c3cc[n+](Cc4ccccc4)c(/C=C/c4ccc([N+](=O)[O-])cc4)c3n(CCCc3ccccc3)c2c1 | 5.54 | 5.35 | 5.82 | 5.62 | 5.39 | 5.57 | 5.51 | 5.55 | 5.60 | 5.89
CCCCOc1ccc2c3cc[n+](Cc4ccccc4)c(/C=C/c4ccc(OC)cc4)c3n(CCCc3ccccc3)c2c1 | 5.17 | 5.14 | 5.80 | 5.57 | 5.15 | 5.34 | 5.09 | 5.47 | 5.49 | 5.05
CCCCn1c2ccccc2c2ccnc(/C=C/c3ccc(OC)cc3)c21 | 4.05 | 4.23 | 4.53 | 4.52 | 3.85 | 4.17 | 4.60 | 4.42 | < 3.70 | 4.18
CCCCn1c2ccccc2c2ccnc(C)c21 | 3.99 | – | 3.84 | – | 3.58 | – | – | – | – | 3.84
COc1ccc(/C=C/c2c3[nH]c4ccccc4c3cc[n+]2Cc2ccccc2)cc1 | 4.49 | 4.55 | 4.65 | 4.75 | 4.64 | 5.00 | 5.31 | 4.97 | 5.03 | 5.02
CC(=O)n1c2ccccc2c2ccnc(/C=C/c3ccc([N+](=O)[O-])cc3)c21 | < 3.70 | < 3.70 | < 3.70 | < 3.70 | < 3.70 | < 3.70 | < 3.70 | < 3.70 | < 3.70 | 3.71
Cc1nccc2c1[nH]c1ccccc12 [HARMAN] | 3.73 | – | 3.82 | – | 3.67 | – | – | – | – | 3.94
